Experimental data taken from ChEMBL document CHEMBL5154776, “Discovery of Potent and Orally Bioavailable Platelet-Derived Growth Factor Receptor (PDGFR) Inhibitors for the Treatment of Osteosarcoma” (J Med Chem, 2022).

Assays:
[1] = biological target: T1, Platelet-derived growth factor receptor beta (Homo sapiens, UniProt P09619); assay: Inhibition of PDGFRbeta (unknown origin) at 100 nM by caliper mobility shift assay relative to control
[2] = biological target: T1, Platelet-derived growth factor receptor beta; assay: Inhibition of PDGFRbeta (unknown origin) by caliper mobility shift assay
SAOS-2 = assay: Antiproliferative activity against human SAOS-2 cells assessed as reduction in cell viability incubated for 48 hrs by MTT assay; settings: SAOS-2, 48 h
U2OS = assay: Antiproliferative activity against human U2OS cells assessed as reduction in cell viability incubated for 48 hrs by MTT assay
MG-63 = assay: Antiproliferative activity against human MG-63 cells assessed as reduction in cell viability incubated for 48 hrs by MTT assay; settings: MG-63, 48 h
HOS-TE85 = assay: Antiproliferative activity against human MNNG/HOS cells assessed as reduction in cell viability incubated for 48 hrs by MTT assay; settings: HOS-TE85, 48 h

T1 sequence (P09619 whole entry): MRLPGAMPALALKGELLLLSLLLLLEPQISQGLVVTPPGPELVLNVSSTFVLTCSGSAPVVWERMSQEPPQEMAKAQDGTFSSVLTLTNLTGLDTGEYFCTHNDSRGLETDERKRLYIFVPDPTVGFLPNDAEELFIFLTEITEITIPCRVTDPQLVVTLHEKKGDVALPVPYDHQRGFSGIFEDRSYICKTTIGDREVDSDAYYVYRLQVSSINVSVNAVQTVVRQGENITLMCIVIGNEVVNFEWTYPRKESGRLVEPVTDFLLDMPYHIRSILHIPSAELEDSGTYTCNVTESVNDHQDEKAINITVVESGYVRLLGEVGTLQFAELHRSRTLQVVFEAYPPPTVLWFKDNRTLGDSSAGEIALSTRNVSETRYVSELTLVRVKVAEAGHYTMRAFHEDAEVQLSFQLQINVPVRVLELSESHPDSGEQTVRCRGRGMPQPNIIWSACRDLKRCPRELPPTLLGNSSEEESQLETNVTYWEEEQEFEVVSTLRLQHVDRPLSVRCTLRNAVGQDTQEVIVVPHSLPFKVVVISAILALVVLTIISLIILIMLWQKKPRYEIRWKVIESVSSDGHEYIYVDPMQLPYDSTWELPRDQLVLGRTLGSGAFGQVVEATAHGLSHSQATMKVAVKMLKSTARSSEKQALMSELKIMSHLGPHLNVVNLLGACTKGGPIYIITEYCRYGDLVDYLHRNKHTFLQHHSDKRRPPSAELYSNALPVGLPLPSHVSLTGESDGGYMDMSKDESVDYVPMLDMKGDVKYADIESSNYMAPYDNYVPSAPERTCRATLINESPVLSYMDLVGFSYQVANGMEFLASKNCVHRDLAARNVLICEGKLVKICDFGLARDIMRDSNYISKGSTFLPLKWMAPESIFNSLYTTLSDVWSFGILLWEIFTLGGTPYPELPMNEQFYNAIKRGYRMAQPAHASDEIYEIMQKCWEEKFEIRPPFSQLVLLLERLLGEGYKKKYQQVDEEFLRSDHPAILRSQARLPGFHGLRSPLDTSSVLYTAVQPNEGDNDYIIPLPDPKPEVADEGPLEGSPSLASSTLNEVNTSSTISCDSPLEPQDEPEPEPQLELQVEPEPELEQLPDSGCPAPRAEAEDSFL

Question: With COc1cnc(Nc2ccc(N3CCN(C)CC3)cc2)nc1Nc1ccc2cn[nH]c2c1 as the molecule, how does the inhibition [1] read?
Answer: Its inhibition is 55%.

Question: For CCOC(=O)c1cnc(Nc2ccc(N3CCN(C)CC3)cc2)nc1Nc1ccc2cn[nH]c2c1, which inhibition [1] is on record?
Answer: Its inhibition is 30.7%.

Question: How did the IC50 [2] turn out when Cc1cnc(Nc2ccc(N3CCC(F)(F)CC3)cc2)nc1Nc1ccc2cn[nH]c2c1 was run?
Answer: Its IC50 is 90.9 nM.

Question: How did the inhibition [1] turn out when Cc1cnc(Nc2ccc(N3CCN(C)CC3)cc2)nc1Nc1ccc2nn(CCNC(=O)OC(C)(C)C)cc2c1 was run?
Answer: Its inhibition is 71.1%.

Question: How did the inhibition [1] turn out when CN1CCN(c2ccc(Nc3ncc(F)c(Nc4ccc5cn[nH]c5c4)n3)cc2)CC1 was run?
Answer: Its inhibition is 94.4%.

Question: Which inhibition [1] does the source give for Cc1cnc(Nc2ccc(N3CCN(C)CC3)cc2)nc1Nc1ccc2c(c1)CCC2 here?
Answer: Its inhibition is 88.9%.

Question: How did the IC50 [2] turn out when Cc1cnc(Nc2ccc(N3CCOCC3)cc2)nc1Nc1ccc2cn[nH]c2c1 was run?
Answer: The IC50 was 6.9 nM.

Question: For CN1CCN(c2ccc(Nc3ncc(Cl)c(Nc4ccc5cn[nH]c5c4)n3)cc2)CC1, which inhibition [1] is on record?
Answer: Its inhibition is 95.8%.

Question: Which inhibition [1] does the source give for Cc1cnc(Nc2ccc(N3CCN(C)CC3)cc2)nc1Nc1ccc2[nH]ncc2c1 here?
Answer: The inhibition was 84.1%.

Question: For Cc1cnc(Nc2ccc(N3CCN(C)CC3)cc2)nc1Nc1ccc2cn[nH]c2c1, which inhibition [1] is on record?
Answer: The inhibition was 99.6%.

Question: For Cc1cnc(Nc2ccc(N3CCN(C)CC3)cc2)nc1Nc1ccc2cccnc2c1, which inhibition [1] is on record?
Answer: Its inhibition is 91%.

Question: For Cc1cnc(Nc2ccc(C(=O)N3CCN(C)CC3)cc2)nc1Nc1ccc2cn[nH]c2c1, which IC50 [2] is on record?
Answer: The IC50 was 47.7 nM.

Question: For COc1cc(Nc2ncc(C)c(Nc3ccc4cn[nH]c4c3)n2)ccc1N1CCN(C)CC1, which IC50 (SAOS-2) is on record?
Answer: Its IC50 is 720 nM.

Question: And the IC50 (U2OS)?
Answer: The IC50 was 760 nM.

Question: What about the IC50 (MG-63) of the same molecule?
Answer: Its IC50 is 840 nM.

Question: And the IC50 (HOS-TE85)?
Answer: Its IC50 is 1360 nM.

Question: What about the IC50 [2] of the same molecule?
Answer: The IC50 was 4.6 nM.

Question: Which inhibition [1] does the source give for CN1CCN(c2ccc(Nc3nc(Nc4ccc5cn[nH]c5c4)cc(C(F)(F)F)n3)cc2)CC1 here?
Answer: Its inhibition is 3.5%.

Question: COc1cc(N2CCN(C)CC2)ccc1Nc1ncc(C)c(Nc2ccc3cn[nH]c3c2)n1 was tested. Which IC50 [2] did it give?
Answer: The IC50 was 44.1 nM.

Question: With CN1CCN(c2ccc(Nc3nc(Nc4ccc5cn[nH]c5c4)c4sccc4n3)cc2)CC1 as the molecule, how does the inhibition [1] read?
Answer: The inhibition was 21.2%.

Question: How did the inhibition [1] turn out when Cc1cc(Nc2ccc3cn[nH]c3c2)nc(Nc2ccc(N3CCN(C)CC3)cc2)n1 was run?
Answer: Its inhibition is 7.2%.
